Data taken from ChEMBL document CHEMBL1130842, “Synthesis and in vitro cytotoxicity of lipophilic platinum(II) complexes” (Bioorg Med Chem Lett, 1998).
≈ marks a conversion by molar mass, not a printed value.

Assays:
Assay type in all cases: functional, cell-based
P388 = test: Cytotoxicity was evaluated against leukemia P388 cell-line by MTT assay; conditions: Mus musculus
Lung NSCLC-N6 cell-line = test: Cytotoxicity was evaluated against lung NSCLC-N6 cell-line by MTT assay; conditions: Homo sapiens
M96 = test: Cytotoxicity was evaluated against melanoma M96 cell-line by MTT assay; conditions: Homo sapiens
E39 = test: Cytotoxicity was evaluated against renal E39 cell-line by MTT assay; conditions: Homo sapiens

**Q.** With `CCCCCCCCCCCCCCC(N)CN` (centres undefined) as the molecule, how does the IC50 (P388) read?
**A.** 0.1 µg/mL (≈ 0.39 µM)

**Q.** What about the IC50 (Lung NSCLC-N6 cell-line) of the same molecule?
**A.** 1.1 µg/mL (≈ 4.29 µM)

**Q.** What about the IC50 (M96) of the same molecule?
**A.** 7.8 µg/mL (≈ 30.4 µM)

**Q.** And the IC50 (E39)?
**A.** 5.3 µg/mL (≈ 20.7 µM)
